# PubChem BioAssay (NCI)
#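 Method: 48-hour compound exposure of cells in 96-well plates, five concentrations, linear interpolation of endpoints. At the GI50, growth is halved. TGI denotes the concentration required for complete inhibition of growth.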
# What was measured:
# Assay in all cases: DTP human tumour cell line panel, 48 h
# [1] = system: 786-0 renal
# [2] = system: A498 renal
# [3] = system: A549 NSCLC
# [4] = system: ACHN renal
# [5] = system: BT-549 breast
# [6] = system: CAKI-1 renal
# [7] = system: CCRF-CEM leukemia
# [8] = system: COLO 205 colon
# [9] = system: DU-145 prostate
# [10] = system: EKVX NSCLC
# [11] = system: HCC-2998 colon
# [12] = system: HCT-116 colon
# [13] = system: HCT-15 colon
# [14] = system: HL-60(TB) leukemia
# [15] = system: HOP-62 NSCLC
# [16] = system: HOP-92 NSCLC
# [17] = system: HS 578T breast
# [18] = system: HT29 colon
# [19] = system: IGROV1 ovarian
# [20] = system: K-562 leukemia
# [21] = system: KM12 colon
# [22] = system: LOX IMVI melanoma
# [23] = system: M14 melanoma
# [24] = system: MALME-3M melanoma
# [25] = system: MCF7 breast
# [26] = system: MDA-MB-231 breast
# [27] = system: MDA-MB-435
# [28] = system: MOLT-4 leukemia
# [29] = system: NCI-H226 lung
# [30] = system: NCI-H23 lung
# [31] = system: NCI-H460 lung
# [32] = system: NCI-H522 lung
# [33] = system: NCI/ADR-RES ovarian
# [34] = system: OVCAR-3 ovarian
# [35] = system: OVCAR-4 ovarian
# [36] = system: OVCAR-5 ovarian
# [37] = system: OVCAR-8 ovarian
# [38] = system: PC-3 prostate
# [39] = system: RPMI-8226 leukemia
# [40] = system: RXF 393 renal
# [41] = system: SF-268 CNS
# [42] = system: SF-295 CNS
# [43] = system: SF-539 CNS
# [44] = system: SK-MEL-2 melanoma
# [45] = system: SK-MEL-28 melanoma
# [46] = system: SK-MEL-5 melanoma
# [47] = system: SK-OV-3 ovarian
# [48] = system: SN12C renal
# [49] = system: SNB-19 CNS
# [50] = system: SNB-75 CNS
# [51] = system: SR leukemia
# [52] = system: SW-620 colon
# [53] = system: T-47D breast
# [54] = system: U251 CNS
# [55] = system: UACC-257 melanoma
# [56] = system: UACC-62 melanoma
# [57] = system: UO-31 renal
compound,measurement,setting,value
CNC(=O)c1cc2c(Oc3ccc(NC(=O)C4(C(=O)Nc5ccc(F)cc5)CC4)cc3)ccnc2cc1OC,GI50,[1],3.46 µM
same,TGI,[1],> 100 µM
same,GI50,[2],1.28 µM
same,TGI,[2],3.27 µM
same,GI50,[3],2.82 µM
same,TGI,[3],16.9 µM
same,GI50,[4],2.31 µM
same,TGI,[4],> 100 µM
same,GI50,[5],3.01 µM
same,TGI,[5],9.6 µM
same,GI50,[6],1.52 µM
same,TGI,[6],3.33 µM
same,GI50,[7],3 µM
same,TGI,[7],> 100 µM
same,GI50,[8],2.23 µM
same,TGI,[8],9.13 µM
same,GI50,[9],4.06 µM
same,TGI,[9],> 100 µM
same,GI50,[10],3.39 µM
same,TGI,[10],> 100 µM
same,GI50,[11],5.61 µM
same,TGI,[11],> 100 µM
same,GI50,[12],3.23 µM
same,TGI,[12],14.2 µM
same,GI50,[13],2.77 µM
same,TGI,[13],> 100 µM
same,GI50,[14],2.63 µM
same,TGI,[14],6.63 µM
same,GI50,[15],2.67 µM
same,TGI,[15],> 100 µM
same,GI50,[16],1.03 µM
same,TGI,[16],4.75 µM
same,GI50,[17],1.11 µM
same,TGI,[17],4.69 µM
same,GI50,[18],2.42 µM
same,TGI,[18],> 100 µM
same,GI50,[19],2.32 µM
same,TGI,[19],8.96 µM
same,GI50,[20],0.37 µM
same,TGI,[20],3.4 µM
same,GI50,[21],0.196 µM
same,TGI,[21],> 100 µM
same,GI50,[22],2.57 µM
same,TGI,[22],8.93 µM
same,GI50,[23],2.45 µM
same,TGI,[23],11.2 µM
same,GI50,[24],1.66 µM
same,TGI,[24],9.45 µM
same,GI50,[25],2.55 µM
same,TGI,[25],> 100 µM
same,GI50,[26],2.41 µM
same,TGI,[26],> 100 µM
same,GI50,[27],2.28 µM
same,TGI,[27],6.64 µM
same,GI50,[28],2.23 µM
same,TGI,[28],8.18 µM
same,GI50,[29],2.47 µM
same,TGI,[29],10.7 µM
same,GI50,[30],2.17 µM
same,TGI,[30],> 100 µM
same,GI50,[31],3.88 µM
same,TGI,[31],> 100 µM
same,GI50,[32],2.51 µM
same,TGI,[32],> 100 µM
same,GI50,[33],3.56 µM
same,TGI,[33],> 100 µM
same,GI50,[34],3.48 µM
same,TGI,[34],> 100 µM
same,GI50,[35],3.55 µM
same,TGI,[35],> 100 µM
same,GI50,[36],3.17 µM
same,TGI,[36],> 100 µM
same,GI50,[37],3.77 µM
same,TGI,[37],> 100 µM
same,GI50,[38],3.09 µM
same,TGI,[38],> 100 µM
same,GI50,[39],2.6 µM
same,TGI,[39],55.9 µM
same,GI50,[40],1.58 µM
same,TGI,[40],3.53 µM
same,GI50,[41],3.06 µM
same,TGI,[41],> 100 µM
same,GI50,[42],0.177 µM
same,TGI,[42],6.26 µM
same,GI50,[43],0.463 µM
same,TGI,[43],6.56 µM
same,GI50,[44],2.02 µM
same,TGI,[44],5.92 µM
same,GI50,[45],3.68 µM
same,TGI,[45],> 100 µM
same,GI50,[46],2.37 µM
same,TGI,[46],6.51 µM
same,GI50,[47],2.94 µM
same,TGI,[47],9.33 µM
same,GI50,[48],1.1 µM
same,TGI,[48],> 100 µM
same,GI50,[49],8.02 µM
same,TGI,[49],> 100 µM
same,GI50,[50],0.0837 µM
same,TGI,[50],2.74 µM
same,GI50,[51],2.05 µM
same,TGI,[51],5.99 µM
same,GI50,[52],2.64 µM
same,TGI,[52],> 100 µM
same,GI50,[53],2.71 µM
same,TGI,[53],16.3 µM
same,GI50,[54],3.51 µM
same,TGI,[54],> 100 µM
same,GI50,[55],3.12 µM
same,TGI,[55],> 100 µM
same,GI50,[56],1.54 µM
same,TGI,[56],15 µM
same,GI50,[57],1.78 µM
same,TGI,[57],6.25 µM
